Key:
[1] = test system: MCF-7 neo/HER2 breast cancer tumor xenografts; assay: In vivo mouse tumor xenograft efficacy; set-up: species or system mice
Experimental: (§1) Xenografts were initiated with cancer cells. […] Volume was calculated using the formula: […]

[2] = test system: cancer cell lines; assay: cell proliferation assays across cancer cell lines (FIGS. 1-3, 12); type: cell-based; settings: EC50, cell proliferation assays
Description: EC50 values were established for the experiments.

[3] = molecular target: PI3K alpha E545K mutant (Homo sapiens, UniProt P42336, E545K); settings: relative to PI3K alpha; Folkes et al (2008); cited from earlier work
Sequence of PI3K alpha E545K mutant (P42336 whole entry E545K): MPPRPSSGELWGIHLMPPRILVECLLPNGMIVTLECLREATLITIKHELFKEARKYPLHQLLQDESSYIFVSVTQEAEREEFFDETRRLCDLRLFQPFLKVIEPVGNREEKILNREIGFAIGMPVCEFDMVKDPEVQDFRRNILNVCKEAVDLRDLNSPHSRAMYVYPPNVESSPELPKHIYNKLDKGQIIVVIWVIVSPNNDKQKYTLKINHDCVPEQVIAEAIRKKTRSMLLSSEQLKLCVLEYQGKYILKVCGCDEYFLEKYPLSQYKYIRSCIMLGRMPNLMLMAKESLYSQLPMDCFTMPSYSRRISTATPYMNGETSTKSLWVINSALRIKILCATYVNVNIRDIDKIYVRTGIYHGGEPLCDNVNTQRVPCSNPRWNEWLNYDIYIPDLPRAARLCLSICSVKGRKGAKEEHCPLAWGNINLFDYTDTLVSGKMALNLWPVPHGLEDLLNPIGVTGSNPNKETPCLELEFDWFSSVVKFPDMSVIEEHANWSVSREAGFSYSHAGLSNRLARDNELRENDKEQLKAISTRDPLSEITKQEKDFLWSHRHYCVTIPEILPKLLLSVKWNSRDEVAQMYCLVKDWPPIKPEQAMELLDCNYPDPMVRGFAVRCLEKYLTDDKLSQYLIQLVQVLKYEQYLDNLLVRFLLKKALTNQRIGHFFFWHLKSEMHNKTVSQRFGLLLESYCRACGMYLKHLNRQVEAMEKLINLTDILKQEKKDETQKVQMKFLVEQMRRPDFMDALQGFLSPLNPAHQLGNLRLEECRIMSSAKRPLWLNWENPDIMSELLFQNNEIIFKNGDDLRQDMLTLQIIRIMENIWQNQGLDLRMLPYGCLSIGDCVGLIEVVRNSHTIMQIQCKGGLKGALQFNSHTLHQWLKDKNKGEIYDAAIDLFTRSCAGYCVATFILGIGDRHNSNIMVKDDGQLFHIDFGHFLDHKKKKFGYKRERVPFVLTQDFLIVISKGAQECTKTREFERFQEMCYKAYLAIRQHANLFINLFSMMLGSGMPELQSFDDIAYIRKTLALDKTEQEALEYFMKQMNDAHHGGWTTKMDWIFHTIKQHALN
Sequence of PI3K alpha E545K mutant (P27986 whole entry partner): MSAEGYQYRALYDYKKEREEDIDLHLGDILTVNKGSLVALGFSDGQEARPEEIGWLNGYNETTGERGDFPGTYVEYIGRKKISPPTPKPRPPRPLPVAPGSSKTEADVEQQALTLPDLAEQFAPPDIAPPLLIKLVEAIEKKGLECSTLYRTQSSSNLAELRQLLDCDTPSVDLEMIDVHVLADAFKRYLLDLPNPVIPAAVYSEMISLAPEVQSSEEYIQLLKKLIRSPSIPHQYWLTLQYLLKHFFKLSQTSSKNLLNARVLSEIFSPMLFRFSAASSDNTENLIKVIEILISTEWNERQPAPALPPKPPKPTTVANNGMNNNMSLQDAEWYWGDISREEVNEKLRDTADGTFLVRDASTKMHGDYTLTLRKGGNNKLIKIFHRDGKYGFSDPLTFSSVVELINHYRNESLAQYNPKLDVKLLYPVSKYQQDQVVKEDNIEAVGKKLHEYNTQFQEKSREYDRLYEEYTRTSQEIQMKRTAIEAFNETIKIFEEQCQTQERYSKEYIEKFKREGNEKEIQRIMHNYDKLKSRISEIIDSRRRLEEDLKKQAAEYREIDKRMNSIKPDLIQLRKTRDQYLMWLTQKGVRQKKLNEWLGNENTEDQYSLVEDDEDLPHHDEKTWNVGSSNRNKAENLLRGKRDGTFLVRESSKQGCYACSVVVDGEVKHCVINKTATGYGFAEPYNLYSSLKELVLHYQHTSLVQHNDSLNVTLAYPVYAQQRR

[4] = molecular target: PI3K alpha H1047R mutant (Homo sapiens, UniProt P42336, H1047R); settings: relative to PI3K alpha; Folkes et al (2008); cited from earlier work
Sequence of PI3K alpha H1047R mutant (P42336 whole entry H1047R): as the sequence (P42336 whole entry E545K) above, with K545E, H1047R counted along it
Sequence of PI3K alpha H1047R mutant (P27986 whole entry partner): as the sequence (P27986 whole entry partner) above

[5] = test system: HCC1954.x1 breast tumor xenografts; assay: In vivo mouse tumor xenograft efficacy; set-up: species or system mice; settings: 150 mg/kg; QD x 21; PO
Experimental: The term uL means microliter.
as §1

[6] = test system: Endocrine-resistant MCF7-ARO cells; assay: 4 day CellTiter-Glo assay in endocrine resistant cells; type: cell-based, human; settings: FIG. 40A
Description: Endocrine-resistant MCF7-ARO cells were obtained by letrozole dose escalation over about 4 months.

[7] = test system: MCF7-ARO cells; assay: modulation of PI3K pathway and ER pathway markers and apoptosis induction; type: cell-based, human; settings: Twenty-four hour treatment
Description: Aromatase-expressing MCF7 cells convert androstenedione to estrogen in culture.

CC(=O)O[C@@]12CO[C@@H]1C[C@H](O)[C@@]1(C)C(=O)[C@H](O)C3=C(C)[C@@H](OC(=O)[C@H](O)[C@@H](NC(=O)OC(C)(C)C)c4ccccc4)C[C@@](O)([C@@H](OC(=O)c4ccccc4)[C@H]21)C3(C)C [Docetaxel, (2R,3S)—N-carboxy-3-phenylisoserine, N-tert-butyl ester, 13-ester with 5,20-epoxy-1,2,4,7,10,13-hexahydroxytax-11-en-9-one 4-acetate 2-benzoate, trihydrate, reference compound]
% TGI@ day 21 ([1]; QW, 7.5 mg/kg): 69%

CS(=O)(=O)N1CCN(Cc2cc3nc(-c4cccc5[nH]ncc45)nc(N4CCOCC4)c3s2)CC1 [GDC-0941, 4-(2-(1H-indazol-4-yl)-6-((4-(methylsulfonyl)piperazin-1-yl)methyl)thieno[3,2-d]pyrimidin-4-yl)morpholine, reference compound]
sensitivity of cancer cell lines with HER2 amplification versus those without HER2 amplification [2]: 9 times | PI3K alpha E545K mutant [3]: 1x | % TGI@ day 21 ([1]; QD, 150 mg/kg): 80% | PI3K alpha H1047R mutant [4]: 1x | % TGI@ day 21 [5]: 90%

C=C1C[C@@H]2[C@H](CC[C@]3(C)C(=O)CC[C@@H]23)[C@@]2(C)C=CC(=O)C=C12 [exemestane]
resistance of endocrine-resistant cells [6]: resistant

C[C@]12CC[C@@H]3c4ccc(O)cc4C[C@@H](CCCCCCCCC[S+]([O-])CCCC(F)(F)C(F)(F)F)[C@H]3[C@@H]1CC[C@@H]2O (some centres unmarked) [fulvestrant, (7a,1713)-7-{9-[(4,4,5,5,5-pentafluoropentyl)sulfinyl]nonyl}estra-1,3,5(10)-triene-3,17-diol]
resistance of endocrine-resistant cells [6]: resistant

N#Cc1ccc(C(c2ccc(C#N)cc2)n2cncn2)cc1 [letrozole, 4,4′-((1H-1,2,4-triazol-1-yl)methylene)dibenzonitrile]
resistance of endocrine-resistant cells [6]: resistant | PI3K and ER pathway markers [7]: increases HER2 and pAkt, but decreases pmTOR and pp 70S6K

CC/C(=C(\c1ccccc1)c1ccc(OCCN(C)C)cc1)c1ccccc1 [tamoxifen, (Z)-2-[4-(1,2-diphenylbut-1-enyl)phenoxy]-N,N-dimethylethanamine]
resistance of endocrine-resistant cells [6]: resistant
